# Test results reported in PubChem BioAssay (NCI).
#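 96-well plates; 48 h exposure; 5 concentrations. Endpoints by linear interpolation between flanking doses. Not reached: highest tested concentration assigned. TGI denotes the concentration required for complete inhibition of growth.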
# Experiments:
# Assay in all cases: NCI tumour cell line growth inhibition, 48 h
# 786-0 renal = tested on: 786-0 renal
# A498 renal = tested on: A498 renal
# A549 NSCLC = tested on: A549 NSCLC
# ACHN renal = tested on: ACHN renal
# BT-549 breast = tested on: BT-549 breast
# CAKI-1 renal = tested on: CAKI-1 renal
# CCRF-CEM leukemia = tested on: CCRF-CEM leukemia
# COLO 205 colon = tested on: COLO 205 colon
# DU-145 prostate = tested on: DU-145 prostate
# EKVX NSCLC = tested on: EKVX NSCLC
# HCC-2998 colon = tested on: HCC-2998 colon
# HCT-116 colon = tested on: HCT-116 colon
# HCT-15 colon = tested on: HCT-15 colon
# HL-60(TB) leukemia = tested on: HL-60(TB) leukemia
# HOP-62 NSCLC = tested on: HOP-62 NSCLC
# HOP-92 NSCLC = tested on: HOP-92 NSCLC
# HS 578T breast = tested on: HS 578T breast
# HT29 colon = tested on: HT29 colon
# IGROV1 ovarian = tested on: IGROV1 ovarian
# K-562 leukemia = tested on: K-562 leukemia
# KM12 colon = tested on: KM12 colon
# LOX IMVI melanoma = tested on: LOX IMVI melanoma
# M14 melanoma = tested on: M14 melanoma
# MALME-3M melanoma = tested on: MALME-3M melanoma
# MCF7 breast = tested on: MCF7 breast
# MDA-MB-231 breast = tested on: MDA-MB-231 breast
# MDA-MB-435 = tested on: MDA-MB-435
# MDA-N = tested on: MDA-N
# MOLT-4 leukemia = tested on: MOLT-4 leukemia
# NCI-H226 lung = tested on: NCI-H226 lung
# NCI-H23 lung = tested on: NCI-H23 lung
# NCI-H460 lung = tested on: NCI-H460 lung
# NCI-H522 lung = tested on: NCI-H522 lung
# NCI/ADR-RES ovarian = tested on: NCI/ADR-RES ovarian
# OVCAR-3 ovarian = tested on: OVCAR-3 ovarian
# OVCAR-4 ovarian = tested on: OVCAR-4 ovarian
# OVCAR-5 ovarian = tested on: OVCAR-5 ovarian
# OVCAR-8 ovarian = tested on: OVCAR-8 ovarian
# PC-3 prostate = tested on: PC-3 prostate
# RPMI-8226 leukemia = tested on: RPMI-8226 leukemia
# RXF 393 renal = tested on: RXF 393 renal
# SF-268 CNS = tested on: SF-268 CNS
# SF-295 CNS = tested on: SF-295 CNS
# SF-539 CNS = tested on: SF-539 CNS
# SK-MEL-2 melanoma = tested on: SK-MEL-2 melanoma
# SK-MEL-28 melanoma = tested on: SK-MEL-28 melanoma
# SK-MEL-5 melanoma = tested on: SK-MEL-5 melanoma
# SK-OV-3 ovarian = tested on: SK-OV-3 ovarian
# SN12C renal = tested on: SN12C renal
# SNB-19 CNS = tested on: SNB-19 CNS
# SNB-75 CNS = tested on: SNB-75 CNS
# SR leukemia = tested on: SR leukemia
# SW-620 colon = tested on: SW-620 colon
# T-47D breast = tested on: T-47D breast
# TK-10 renal = tested on: TK-10 renal
# U251 CNS = tested on: U251 CNS
# UACC-257 melanoma = tested on: UACC-257 melanoma
# UACC-62 melanoma = tested on: UACC-62 melanoma
# UO-31 renal = tested on: UO-31 renal
smiles,measurement,setting,value
COC(=N)C1(C#N)NC(c2ccsc2)C(C#N)(C#N)NC1c1ccsc1 (centres undefined),TGI,786-0 renal,> 100 µM
same,TGI,A498 renal,> 100 µM
same,TGI,A549 NSCLC,> 100 µM
same,TGI,ACHN renal,> 100 µM
same,TGI,BT-549 breast,> 100 µM
same,TGI,CAKI-1 renal,> 100 µM
same,TGI,CCRF-CEM leukemia,> 100 µM
same,TGI,COLO 205 colon,> 100 µM
same,TGI,DU-145 prostate,> 100 µM
same,TGI,EKVX NSCLC,> 100 µM
same,TGI,HCC-2998 colon,> 100 µM
same,TGI,HCT-116 colon,> 100 µM
same,TGI,HCT-15 colon,> 100 µM
same,TGI,HL-60(TB) leukemia,> 100 µM
same,TGI,HOP-62 NSCLC,> 100 µM
same,TGI,HOP-92 NSCLC,> 100 µM
same,TGI,HS 578T breast,> 100 µM
same,TGI,HT29 colon,> 100 µM
same,TGI,IGROV1 ovarian,> 100 µM
same,TGI,K-562 leukemia,> 100 µM
same,TGI,KM12 colon,> 100 µM
same,TGI,LOX IMVI melanoma,> 100 µM
same,TGI,M14 melanoma,> 100 µM
same,TGI,MALME-3M melanoma,> 100 µM
same,TGI,MCF7 breast,> 100 µM
same,TGI,MDA-MB-231 breast,> 100 µM
same,TGI,MDA-MB-435,> 100 µM
same,TGI,MDA-N,> 100 µM
same,TGI,MOLT-4 leukemia,> 100 µM
same,TGI,NCI-H226 lung,> 100 µM
same,TGI,NCI-H23 lung,> 100 µM
same,TGI,NCI-H460 lung,> 100 µM
same,TGI,NCI-H522 lung,> 100 µM
same,TGI,NCI/ADR-RES ovarian,> 100 µM
same,TGI,OVCAR-3 ovarian,> 100 µM
same,TGI,OVCAR-4 ovarian,> 100 µM
same,TGI,OVCAR-5 ovarian,> 100 µM
same,TGI,OVCAR-8 ovarian,> 100 µM
same,TGI,PC-3 prostate,> 100 µM
same,TGI,RPMI-8226 leukemia,> 100 µM
same,TGI,RXF 393 renal,> 100 µM
same,TGI,SF-268 CNS,> 100 µM
same,TGI,SF-295 CNS,> 100 µM
same,TGI,SF-539 CNS,> 100 µM
same,TGI,SK-MEL-2 melanoma,> 100 µM
same,TGI,SK-MEL-28 melanoma,> 100 µM
same,TGI,SK-MEL-5 melanoma,> 100 µM
same,TGI,SK-OV-3 ovarian,> 100 µM
same,TGI,SN12C renal,> 100 µM
same,TGI,SNB-19 CNS,> 100 µM
same,TGI,SNB-75 CNS,> 100 µM
same,TGI,SR leukemia,> 100 µM
same,TGI,SW-620 colon,> 100 µM
same,TGI,T-47D breast,> 100 µM
same,TGI,TK-10 renal,> 100 µM
same,TGI,U251 CNS,> 100 µM
same,TGI,UACC-257 melanoma,> 100 µM
same,TGI,UACC-62 melanoma,> 100 µM
same,TGI,UO-31 renal,> 100 µM
COC1CC(C)(NC(=O)C(F)(F)F)C2OC(c3ccccc3)OCC2O1 (centres undefined),TGI,786-0 renal,> 100 µM
same,TGI,A498 renal,> 100 µM
same,TGI,A549 NSCLC,> 100 µM
same,TGI,ACHN renal,> 100 µM
same,TGI,BT-549 breast,> 100 µM
same,TGI,CAKI-1 renal,> 100 µM
same,TGI,CCRF-CEM leukemia,> 100 µM
same,TGI,COLO 205 colon,> 100 µM
same,TGI,DU-145 prostate,> 100 µM
same,TGI,EKVX NSCLC,> 100 µM
same,TGI,HCT-116 colon,> 100 µM
same,TGI,HCT-15 colon,> 100 µM
same,TGI,HL-60(TB) leukemia,> 100 µM
same,TGI,HOP-62 NSCLC,> 100 µM
same,TGI,HOP-92 NSCLC,> 100 µM
same,TGI,HS 578T breast,> 100 µM
same,TGI,HT29 colon,> 100 µM
same,TGI,IGROV1 ovarian,> 100 µM
same,TGI,K-562 leukemia,> 100 µM
same,TGI,KM12 colon,> 100 µM
same,TGI,LOX IMVI melanoma,> 100 µM
same,TGI,M14 melanoma,> 100 µM
same,TGI,MALME-3M melanoma,> 100 µM
same,TGI,MCF7 breast,> 100 µM
same,TGI,MDA-MB-231 breast,> 100 µM
same,TGI,MDA-MB-435,> 100 µM
same,TGI,MDA-N,> 100 µM
same,TGI,MOLT-4 leukemia,> 100 µM
same,TGI,NCI-H226 lung,> 100 µM
same,TGI,NCI-H23 lung,> 100 µM
same,TGI,NCI-H460 lung,> 100 µM
same,TGI,NCI-H522 lung,> 100 µM
same,TGI,NCI/ADR-RES ovarian,> 100 µM
same,TGI,OVCAR-3 ovarian,> 100 µM
same,TGI,OVCAR-4 ovarian,> 100 µM
same,TGI,OVCAR-5 ovarian,> 100 µM
same,TGI,OVCAR-8 ovarian,> 100 µM
same,TGI,PC-3 prostate,> 100 µM
same,TGI,RPMI-8226 leukemia,> 100 µM
same,TGI,RXF 393 renal,> 100 µM
same,TGI,SF-268 CNS,> 100 µM
same,TGI,SF-295 CNS,> 100 µM
same,TGI,SF-539 CNS,> 100 µM
same,TGI,SK-MEL-28 melanoma,> 100 µM
same,TGI,SK-MEL-5 melanoma,> 100 µM
same,TGI,SK-OV-3 ovarian,> 100 µM
same,TGI,SN12C renal,> 100 µM
same,TGI,SNB-19 CNS,> 100 µM
same,TGI,SNB-75 CNS,> 100 µM
same,TGI,SR leukemia,> 100 µM
same,TGI,SW-620 colon,> 100 µM
same,TGI,T-47D breast,> 100 µM
same,TGI,TK-10 renal,> 100 µM
same,TGI,U251 CNS,> 100 µM
same,TGI,UACC-257 melanoma,> 100 µM
same,TGI,UACC-62 melanoma,> 100 µM
same,TGI,UO-31 renal,> 100 µM
C[C@]12CC[C@H]3[C@@H](CC=C4C[C@@H](N5CCCC5)CC[C@@]43C)[C@@H]1C[C@H](N1CCCCC1)[C@@H]2O,TGI,786-0 renal,> 100 µM
same,TGI,A498 renal,> 100 µM
same,TGI,A549 NSCLC,> 100 µM
same,TGI,ACHN renal,> 100 µM
same,TGI,BT-549 breast,> 100 µM
same,TGI,CAKI-1 renal,> 100 µM
same,TGI,CCRF-CEM leukemia,> 100 µM
same,TGI,COLO 205 colon,> 100 µM
same,TGI,DU-145 prostate,> 100 µM
same,TGI,EKVX NSCLC,> 100 µM
same,TGI,HCC-2998 colon,> 100 µM
same,TGI,HCT-116 colon,> 100 µM
same,TGI,HCT-15 colon,> 100 µM
same,TGI,HL-60(TB) leukemia,> 100 µM
same,TGI,HOP-62 NSCLC,> 100 µM
same,TGI,HOP-92 NSCLC,> 100 µM
same,TGI,HS 578T breast,> 100 µM
same,TGI,HT29 colon,> 100 µM
same,TGI,IGROV1 ovarian,> 100 µM
same,TGI,K-562 leukemia,49.6 µM
same,TGI,KM12 colon,> 100 µM
same,TGI,LOX IMVI melanoma,> 100 µM
same,TGI,M14 melanoma,40.4 µM
same,TGI,MALME-3M melanoma,> 100 µM
same,TGI,MCF7 breast,> 100 µM
same,TGI,MDA-MB-231 breast,> 100 µM
same,TGI,MDA-MB-435,> 100 µM
same,TGI,MDA-N,> 100 µM
same,TGI,MOLT-4 leukemia,> 100 µM
same,TGI,NCI-H226 lung,> 100 µM
same,TGI,NCI-H23 lung,> 100 µM
same,TGI,NCI-H460 lung,> 100 µM
same,TGI,NCI-H522 lung,> 100 µM
same,TGI,NCI/ADR-RES ovarian,> 100 µM
same,TGI,OVCAR-3 ovarian,> 100 µM
same,TGI,OVCAR-4 ovarian,> 100 µM
same,TGI,OVCAR-5 ovarian,> 100 µM
same,TGI,OVCAR-8 ovarian,> 100 µM
same,TGI,PC-3 prostate,> 100 µM
same,TGI,RPMI-8226 leukemia,85.7 µM
same,TGI,RXF 393 renal,> 100 µM
same,TGI,SF-268 CNS,> 100 µM
same,TGI,SF-295 CNS,> 100 µM
same,TGI,SF-539 CNS,> 100 µM
same,TGI,SK-MEL-28 melanoma,> 100 µM
same,TGI,SK-MEL-5 melanoma,> 100 µM
same,TGI,SK-OV-3 ovarian,> 100 µM
same,TGI,SN12C renal,> 100 µM
same,TGI,SNB-19 CNS,> 100 µM
same,TGI,SNB-75 CNS,> 100 µM
same,TGI,SR leukemia,35.7 µM
same,TGI,SW-620 colon,> 100 µM
same,TGI,T-47D breast,> 100 µM
same,TGI,TK-10 renal,> 100 µM
same,TGI,U251 CNS,> 100 µM
same,TGI,UACC-257 melanoma,83.8 µM
same,TGI,UACC-62 melanoma,> 100 µM
same,TGI,UO-31 renal,> 100 µM
